{"source": "patent US20120070449A1", "about": "“METHODS OF TREATING INFLAMMATION” (Yeda Research And Development Co. Ltd., priority 2009, published 2012)", "key": {"T cells": {"system": "T cells", "test": "Cytoskeleton rearrangement: CCL21-induced actin polymerization (FITC-phalloidin, flow cytometry)", "assay_type": "cell-based, mouse", "method": "T cells were pre-incubated in the presence or absence of CCL2 (1 ng/ml, PeproTech) for 1 hour and were then stimulated with CCL21 (SLC, 100 ng/ml, PeproTech). Cells were fixed by 3.7% formaldehyde solution (Merck) and cytoskeleton rearrangement was analyzed by flow cytometry following staining with fluorescein isothiocyanate (FITC)-phalloidin, as was previously described [Flaishon et al., J. Biol. Chem. (2001) 276: 46701-46706].\nFor CD151 activation leading to cytoskeletal rearrangement-T cells were pretreated with either 2 μg/ml of activating antibody specific for the extracellular domain of CD151 (Santa Cruz) or with an isotype control antibody IgG rabbit anti mouse (ImmunoResearch Labs.inc)/anti CUL1 (Santa Cruz) for 1 hour/20 hours.\nFor blocking CD151− T cells were pretreated for 1 hour with 10 μg/ml blocking anti-CD151 antibody (BD pharmingen) or with 10 μg/ml control antibody anti-IgG (ImmunoResearch Labs.inc)/anti KPL1 (Chemicon).\nNext, a 100 ng/ml chemokine CCL21 (SLC, PeproTech) stimulation was carried out and the cells were fixed by 3.7% formaldehyde solution (Merck), permeabilized and stained with fluorescein isothiocyanate (FITC)-phalloidin, as was previously described [Flaishon et al., J. Biol. Chem. (2001) 276: 46701-46706]. Cytoskeleton rearrangement was analyzed by flow cytometry.\n1×10^7 T cells were incubated in the presence or absence of CCL2 for 10 minutes, followed by stimulation with either activating anti-CD151 (Santa Cruz, 2 μg/ml) or an isotype control antibody IgG rabbit anti mouse (ImmunoResearch Labs.inc, 2 μg/ml) for 1 hour. The cells were then stimulated with CCL21 (100 ng/ml) and actin polymerization was analyzed.\nCells were fixed by 3.7% formaldehyde solution (Merck), and cytoskeleton rearrangement was analyzed by flow cytometry following staining with fluorescein isothiocyanate (FITC)-phalloidin, as was previously described [Flaishon et al. (2001), supra]."}, "CD151 [1]": {"system": "CD151", "test": "CD151 mRNA expression in T cells (DNA chip array, RT-PCR, real-time PCR)", "assay_type": "cell-based, mouse", "method": "(§1) 1×10^7 T cells from control C57BL/6 or CCR2−/− mice were suspended in 1 ml RPMI medium containing 10% (v/v) FCS. Next, 1 ng/ml of CCL2 (PeproTech) was added to half of the tubes (the other half was kept as a control), and the tubes were placed at 37° C. for different time periods (see the results section below). After incubation, the cells were washed and used for the different experiments.\nTotal RNA was isolated from cells using the Tri reagent kit (Molecular Research Center, Inc). Reverse transcription was carried out using Superscript II RT (Gibco-BRL) and the primers: […]\nTo obtain differential expression data of the T cells following CCL2 incubation, the differences between mRNA levels in this cell population were identified by screening mouse DNA chip arrays using the Affymatrix genechip expression analysis system (mouse 430 A2.0). The system consisted of two parameters: probe array and RNA target. Probe array included approximately 20,000 murine genes and ESTs. Each gene or EST was analyzed with approximately 20 pairs of specific, unique 25 mer-oligonucleotides probe. Each probe type was located in a specific area called probe cell. Each probe cell contained millions of copies of a given probe. All probe cells together made up the probe array (Affymetrix Genechip Expression Technical Manual). RNA from CCL2 treated T cells and from control T cells was converted to cDNA and then in vitro transcribed while labeled with biotin (see methods for RNA isolation and cells separation). The target RNA was hybridized to the probe array. The hybridized probe array was stained with streptavidin phycoerythrin conjugate and scanned by the GeneArray scanner. The amount of light emitted was proportional to the bound target at each location on the probe array. The two populations were compared according to the hybridization intensity in each cell.\nmRNA levels of actin and CD151 were analyzed by quantitative real-time RT-PCR using a Light-Cycler instrument (Roche Diagnostics, Mannheim, Germany). […]"}, "CD151 [2]": {"system": "CD151", "test": "CD151 cell surface expression on T cells (flow cytometry)", "assay_type": "cell-based, mouse", "settings": "CCL2 1 ng/ml", "method": "Freshly isolated T cells were pre-incubated in the presence or absence of CCL2 (1 ng/ml, PeproTech) for several time periods (see the results section below). After incubation the cells were double stained with anti-CD3 (Pharmagene) and anti-CD151 (Santa Cruz) and the secondary antibody alexa goat anti rabbit (Invitrogene) was used. Expression of the stained proteins was analyzed by flow cytometry."}, "CD151/VLA4 complex": {"system": "CD151/VLA4 complex", "test": "Co-immunoprecipitation of CD151 with β1 integrin (CD151/VLA4 complex)", "assay_type": "cell-based, mouse", "method": "as §1\nStimulated frozen cells were lysed in lysis buffer containing: 25 mM Tris, pH 7.4; 2 mM Vanadate; 75 mM glycophosphate, pH 7.2; 2 mM EDTA; 2 mM EGTA; 10 mM NaPPi; and 0.5% NP-40, in the presence of the following protease inhibitors: 10 mg/ml Leupeptin; 10 mg/ml aprotinin; 10 mg/ml pepstatin; 10 mg/ml chymostatin (Roche); 1 mM PMSF (Sigma); and 20 mM N-etheyl-melamide (Sigma).\n(§2) Protein G-Sepharose beads (GE Healthcare) were conjugated to Tyr (P) monoclonal antibody (Santa Cruz) or to anti-CD151 (Santa Cruz) for 2 hours at 4° C. followed by three washes in phosphate-buffered saline. Beads were added to the cell lysates and proteins were immunoprecipitated overnight. The protein G-bound material was washed three times with phosphate-buffered saline containing 0.1% SDS and 0.5% Nonidet P-40. Immunoprecipitates were separated by SDS-PAGE. […]"}, "β-catenin": {"system": "β-catenin", "test": "Detection of β-catenin phosphorylation in T cells", "assay_type": "cell-based, mouse", "settings": "CCL2 1 ng/ml 10 minutes before activating anti-CD151 5 minutes, FIG. 4F", "method": "1×10^7 T cells were suspended in 1 ml RPMI medium containing 10% (v/v) FCS. The cells were stimulated with either 2 μg/ml anti-CD151 (Santa Cruz) or an isotype control antibody IgG rabbit anti mouse (ImmunoResearch Labs.inc). Thereafter, the cells were immediately placed at 37° C. for 5 minutes. Immediately after stimulation, the cells were fast frozen in liquid N2 and were lysed in lysis buffer containing: 25 mM Tris, pH 7.4; 2 mM Vanadate; 75 mM glycophosphate, pH 7.2; 2 mM EDTA; 2 mM EGTA; 10 mM NaPPi; and 0.5% NP-40, in the presence of the following protease inhibitors: 10 mg/ml Leupeptin; 10 mg/ml aprotinin; 10 mg/ml pepstatin; 10 mg/ml chymostatin (Roche); 1 mM PMSF (Sigma); and 20 mM N-etheyl-melamide (Sigma).\nas §2, with “Cruz)” for “Cruz) or to anti-CD151 (Santa Cruz)”, “C.,” for “C.”, “SDS-PAGE. The protein bands were transferred onto a nitrocellulose membrane and probed with anti β-cat (BD Transduction Laboratories) followed by horseradish peroxidase-conjugated anti-mouse IgG (Jackson ImmunoResearch Labs, West Grove, Pa.).” for “SDS-PAGE.”"}, "LFA-1": {"system": "LFA-1", "test": "Laminar flow adhesion assay: LFA-1 mediated adhesion to ICAM-1 triggered by CCL21", "assay_type": "cell-based", "settings": "mouse T cells pre-treated, FIGS. 4G-J", "method": "Purified ICAM-1-Fc (R&D Systems, Minneapolis, Minn.) were coated alone or with mouse CCL21 (R&D Systems) on polystyrene plates, as previously described [Grabovsky V et al. (2000) J Exp Med. 192, 495-506; Sigal A et al. (2000) J. Immunol. 165, 442-452]. The polystyrene plates were each assembled on the lower wall of the flow chamber as previously described [Feigelson S W et al. (2001) J Biol. Chem. 276, 13891-13901]. All flow experiments were conducted at 37° C.\nMouse T cells were purified and re-suspended in HBSS++ (HBSS, Mg^2+Ca^2+) with ICAM-1-Fc or mCCL2 for 1 hr. Cells were then perfused through the flow chamber at low shear stress (0.5-0.75 dyn/cm2) for 2 min. Tethers were defined as transient or rolling if cells attached briefly (less than 2 seconds) to the substrate, and as arrests if cells immediately arrested and remained stationary for at least 5 seconds of continuous flow. To assess adhesion strengthening, post arrest resistance to detachment over time was determined. Accumulated cells were subjected to a shear stress of 5 dyn/cm^2 for 10 minutes. At the indicated time points, the number of cells that remained bound was expressed relative to T cell population originally accumulated in the first 2 minutes of the assay."}, "T lymphocyte": {"system": "T lymphocyte", "settings": "picomolar levels of CCL2; Flaishon et al. 2008, WO 2008/012796; cited from earlier work"}, "[3]": {"settings": "picomolar circulating CCL2; Flaishon et al. 2008, WO 2008/012796; cited from earlier work"}}, "data": [{"substance": "CCL2: chemokine, also called Macrophage Chemotactic Protein-1 or MCP-1 (PeproTech), used at picomolar levels, 1 ng/ml", "values": [{"measurement": "actin polymerization elevation induced by CD151 activation", "setting": "T cells; CCR2-/- T cells, CCL2 10 minutes before activating anti-CD151, FIG. 4D", "result": "not apparent"}, {"measurement": "CCL21-induced actin polymerization", "setting": "T cells; control T cells, CCL2 1 ng/ml (pM levels) 1 hour, then CCL21 100 ng/ml, FIGS. 1A-B", "result": "suppressed actin polymerization"}, {"measurement": "actin polymerization elevation induced by CD151 activation", "setting": "T cells; control T cells, longer CCL2 incubation (20 hours), FIG. 4E", "result": "maintained"}, {"measurement": "actin polymerization elevation induced by CD151 activation", "setting": "T cells; control T cells, pM CCL2 10 minutes before activating anti-CD151 1 hour, then CCL21, FIG. 4C", "result": "completely abolished"}, {"measurement": "transcription of CD151 (RT-PCR)", "setting": "CD151 [1]; CCR2-/- T cells, pM CCL2, FIG. 1D", "result": "no inhibition was observed"}, {"measurement": "differential gene expression of CD151 (DNA chip array)", "setting": "CD151 [1]; T cells incubated 2 hours with CCL2", "result": "downregulated"}, {"measurement": "transcription of CD151 (RT-PCR)", "setting": "CD151 [1]; control naive T cells, pM CCL2, 1, 2 or 4 hours, FIG. 1C", "result": "downregulated following 2 and 4 hour incubations"}, {"measurement": "CD151 cell surface expression", "setting": "CD151 [2]; CCR2-/- T cells, FIG. 1G", "result": "no change was detected"}, {"measurement": "CD151 cell surface expression", "setting": "CD151 [2]; control T cells, different time periods, FIGS. 1E-F", "result": "downregulated CD151 cell surface expression levels"}, {"measurement": "CD151/VLA4 complex (β1 integrin pulled down with CD151)", "setting": "CD151/VLA4 complex; CCR2-/- T cells incubated with CCL2, FIG. 4B", "result": "no effect"}, {"measurement": "CD151/VLA4 complex (β1 integrin pulled down with CD151)", "setting": "CD151/VLA4 complex; control T cells incubated with CCL2, several time periods, FIG. 4A", "result": "disappearance of the CD151/VLA4 complex"}, {"measurement": "β-catenin phosphorylation induced by CD151 activation", "setting": "β-catenin", "result": "completely abolished"}, {"measurement": "adhesion strengthening after arrest (resistance to detachment)", "setting": "LFA-1; continuous/high shear stress", "result": "failed to remain firmly adhered"}, {"measurement": "LFA-1 activation by surface bound CCL21 (arrest/accumulation on ICAM-1)", "setting": "LFA-1; low shear stress", "result": "minor effect"}, {"measurement": "T lymphocyte homing to peripheral lymph nodes", "setting": "T lymphocyte", "result": "inhibit T lymphocyte homing to peripheral lymph nodes"}, {"measurement": "progression of asthma and adjuvant arthritis", "setting": "[3]", "result": "attenuated progression of both asthma and adjuvant arthritis"}]}]}
